Earlier results as cited in paper PMC5314429, “Enhancing PET Signal at Target Tissue in Vivo: Dendritic and Multimeric Tris(hydroxypyridinone) Conjugates for Molecular Imaging of αvβ3 Integrin Expression with Gallium-68” (Bioconjugate Chemistry, 2016).

Set-up: method as in PMID 16821777

Which results are given for `CC(=O)NC(CCC(=O)NCc1c(O)c(=O)cc(C)n1C)(CCC(=O)NCc1c(O)c(=O)cc(C)n1C)CCC(=O)NCc1c(O)c(=O)cc(C)n1C` [THP-Ac]?
log K1 for Fe^3+: 32.52; pFe^3+ (pH 7.4, [Fe^3+] = 10^–6 M, [Ligand] = 10^–5 M): 28.47
